Test results: ChEMBL document CHEMBL4325853, “Design, synthesis and antibacterial evaluation of 2,4-disubstituted-6-thiophenyl-pyrimidines” (Eur J Med Chem, 2019)
≈ marks a conversion by molar mass, not a printed value.

What was measured:
Type in all cases: functional
[1] = system: Staphylococcus aureus; assay: Antibacterial activity against methicillin-resistant Staphylococcus aureus isolate 4127 after 18 hrs by broth microdilution method; conditions: isolate 4127, 18 h
[2] = system: Staphylococcus aureus; assay: Antibacterial activity against methicillin-resistant Staphylococcus aureus isolate 7247 after 18 hrs by broth microdilution method; conditions: isolate 7247, 18 h
[3] = system: Staphylococcus aureus; assay: Bactericidal activity against methicillin-resistant Staphylococcus aureus ATCC BAA41 after 18 hrs by broth microdilution method; conditions: ATCC BAA41, 18 h
[4] = system: Staphylococcus aureus; assay: Antibacterial activity against methicillin-resistant Staphylococcus aureus isolate 7536 after 18 hrs by broth microdilution method; conditions: isolate 7536, 18 h
[5] = system: Enterococcus faecalis; assay: Ratio of MBC to MIC for vancomycin-resistant Enterococcus faecalis ATCC 700221
[6] = system: Staphylococcus aureus; assay: Antibacterial activity against methicillin-resistant Staphylococcus aureus isolate 1708 after 18 hrs by broth microdilution method; conditions: isolate 1708, 18 h
[7] = system: Staphylococcus aureus; assay: Potency index, ratio of methicillin MIC to test compound MIC for methicillin-resistant Staphylococcus aureus ATCC 33592
[8] = system: Staphylococcus aureus; assay: Antibacterial activity against methicillin-resistant Staphylococcus aureus isolate 4548 after 18 hrs by broth microdilution method; conditions: isolate 4548, 18 h
[9] = system: Staphylococcus aureus; assay: Antibacterial activity against methicillin-resistant Staphylococcus aureus isolate 8162 after 18 hrs by broth microdilution method; conditions: isolate 8162, 18 h
[10] = system: Staphylococcus aureus; assay: Potency index, ratio of methicillin MIC to test compound MIC for methicillin-resistant Staphylococcus aureus ATCC BAA41
[11] = system: Staphylococcus aureus; assay: Antibacterial activity against methicillin-resistant Staphylococcus aureus isolate 5035 after 18 hrs by broth microdilution method; conditions: isolate 5035, 18 h
[12] = system: Staphylococcus aureus; assay: Antibacterial activity against methicillin-resistant Staphylococcus aureus isolate 7682 after 18 hrs by broth microdilution method; conditions: isolate 7682, 18 h
[13] = system: Enterococcus faecium; assay: Potency index, ratio of berberine MIC to test compound MIC for Enterococcus faecium ATCC 49624
[14] = system: Staphylococcus aureus; assay: Antibacterial activity against methicillin-resistant Staphylococcus aureus isolate 3096 after 18 hrs by broth microdilution method; conditions: isolate 3096, 18 h
[15] = system: Staphylococcus aureus; assay: Antibacterial activity against methicillin-resistant Staphylococcus aureus ATCC BAA41 after 18 hrs by broth microdilution method; conditions: ATCC BAA41, 18 h
[16] = system: Staphylococcus aureus; assay: Antibacterial activity against methicillin-resistant Staphylococcus aureus isolate 7972 after 18 hrs by broth microdilution method; conditions: isolate 7972, 18 h
[17] = system: Staphylococcus aureus; assay: Antibacterial activity against methicillin-resistant Staphylococcus aureus isolate 6334 after 18 hrs by broth microdilution method; conditions: isolate 6334, 18 h
[18] = system: Staphylococcus aureus; assay: Potency index, ratio of methicillin MIC to test compound MIC for methicillin-resistant Staphylococcus aureus ATCC 43300
[19] = system: Staphylococcus aureus; assay: Antibacterial activity against methicillin-resistant Staphylococcus aureus isolate 3170 after 18 hrs by broth microdilution method; conditions: isolate 3170, 18 h
[20] = system: Staphylococcus aureus; assay: Antibacterial activity against methicillin-resistant Staphylococcus aureus isolate 8179 after 18 hrs by broth microdilution method; conditions: isolate 8179, 18 h
[21] = system: Staphylococcus aureus; assay: Antibacterial activity against methicillin-resistant Staphylococcus aureus isolate 7844 after 18 hrs by broth microdilution method; conditions: isolate 7844, 18 h
[22] = system: Staphylococcus aureus; assay: Antibacterial activity against methicillin-resistant Staphylococcus aureus isolate 1610 after 18 hrs by broth microdilution method; conditions: isolate 1610, 18 h
[23] = system: Staphylococcus aureus; assay: Antibacterial activity against methicillin-resistant Staphylococcus aureus isolate 7664 after 18 hrs by broth microdilution method; conditions: isolate 7664, 18 h
[24] = system: Staphylococcus aureus; assay: Antibacterial activity against methicillin-resistant Staphylococcus aureus isolate 5239 after 18 hrs by broth microdilution method; conditions: isolate 5239, 18 h
[25] = system: Escherichia coli; assay: Antibacterial activity against Escherichia coli ATCC 25922 after 18 hrs by broth microdilution method; conditions: ATCC 25922, 18 h
[26] = system: Staphylococcus aureus; assay: Antibacterial activity against methicillin-resistant Staphylococcus aureus isolate 1947 after 18 hrs by broth microdilution method; conditions: isolate 1947, 18 h
[27] = system: Staphylococcus aureus; assay: Antibacterial activity against methicillin-resistant Staphylococcus aureus isolate 7917 after 18 hrs by broth microdilution method; conditions: isolate 7917, 18 h
[28] = system: Staphylococcus aureus; assay: Antibacterial activity against methicillin-resistant Staphylococcus aureus isolate 5395 after 18 hrs by broth microdilution method; conditions: isolate 5395, 18 h
[29] = system: Enterococcus faecalis; assay: Potency index, ratio of berberine MIC to test compound MIC for Enterococcus faecalis ATCC 29212
[30] = system: Staphylococcus aureus; assay: Antibacterial activity against methicillin-resistant Staphylococcus aureus isolate 4023 after 18 hrs by broth microdilution method; conditions: isolate 4023, 18 h
[31] = system: Staphylococcus aureus; assay: Antibacterial activity against methicillin-resistant Staphylococcus aureus isolate 7813 after 18 hrs by broth microdilution method; conditions: isolate 7813, 18 h
[32] = system: Staphylococcus epidermidis; assay: Potency index, ratio of berberine MIC to test compound MIC for Staphylococcus epidermidis ATCC 12228
[33] = system: Staphylococcus aureus; assay: Antibacterial activity against methicillin-resistant Staphylococcus aureus isolate 7947 after 18 hrs by broth microdilution method; conditions: isolate 7947, 18 h
[34] = system: Staphylococcus aureus; assay: Ratio of MBC to MIC for methicillin-resistant Staphylococcus aureus ATCC BAA41
[35] = system: Staphylococcus aureus; assay: Antibacterial activity against methicillin-resistant Staphylococcus aureus isolate 7587 after 18 hrs by broth microdilution method; conditions: isolate 7587, 18 h
[36] = system: Staphylococcus aureus; assay: Antibacterial activity against methicillin-resistant Staphylococcus aureus isolate 2158 after 18 hrs by broth microdilution method; conditions: isolate 2158, 18 h
[37] = system: Staphylococcus aureus; assay: Antibacterial activity against methicillin-resistant Staphylococcus aureus ATCC BAA1720 after 18 hrs by broth microdilution method; conditions: ATCC BAA1720, 18 h
[38] = system: Staphylococcus aureus; assay: Antibacterial activity against methicillin-resistant Staphylococcus aureus isolate 7864 after 18 hrs by broth microdilution method; conditions: isolate 7864, 18 h
[39] = system: Enterococcus faecalis; assay: Antibacterial activity against vancomycin-resistant Enterococcus faecalis ATCC 700221 after 18 hrs by broth microdilution method; conditions: ATCC 700221, 18 h
[40] = system: Staphylococcus aureus; assay: Bactericidal activity against methicillin-resistant Staphylococcus aureus ATCC 43300 after 18 hrs by broth microdilution method; conditions: ATCC 43300, 18 h
[41] = system: Staphylococcus aureus; assay: Antibacterial activity against methicillin-resistant Staphylococcus aureus isolate 1651 after 18 hrs by broth microdilution method; conditions: isolate 1651, 18 h
[42] = system: Enterococcus faecium; assay: Antibacterial activity against Enterococcus faecium ATCC 49624 after 18 hrs by broth microdilution method; conditions: ATCC 49624, 18 h
[43] = system: Staphylococcus aureus; assay: Antibacterial activity against methicillin-resistant Staphylococcus aureus ATCC 43300 after 18 hrs by broth microdilution method; conditions: ATCC 43300, 18 h
[44] = system: Staphylococcus aureus; assay: Antibacterial activity against methicillin-resistant Staphylococcus aureus isolate 8078 after 18 hrs by broth microdilution method; conditions: isolate 8078, 18 h
[45] = system: Staphylococcus aureus; assay: Antibacterial activity against methicillin-resistant Staphylococcus aureus isolate 5426 after 18 hrs by broth microdilution method; conditions: isolate 5426, 18 h
[46] = system: Staphylococcus aureus; assay: Potency index, ratio of berberine MIC to test compound MIC for Staphylococcus aureus ATCC 29213
[47] = system: Enterococcus faecalis; assay: Bactericidal activity against vancomycin-resistant Enterococcus faecalis ATCC 700221 after 18 hrs by broth microdilution method; conditions: ATCC 700221, 18 h

CC(C)(C)c1ccc(CN2CCCN(CCc3cc(-c4cccs4)nc(-c4ccncc4)n3)CC2)cc1
MIC90 [1]: 2 µg/mL (≈ 3.91 µM)
MIC90 [2]: 2 µg/mL (≈ 3.91 µM)
MBC [3]: 2 µg/mL (≈ 3.91 µM)
MIC90 [4]: 2 µg/mL (≈ 3.91 µM)
Ratio [5]: 1
MIC90 [6]: 4 µg/mL (≈ 7.82 µM)
Ratio [7]: >100
MIC90 [8]: 2 µg/mL (≈ 3.91 µM)
MIC90 [9]: 2 µg/mL (≈ 3.91 µM)
Ratio [10]: >100
MIC90 [11]: 2 µg/mL (≈ 3.91 µM)
MIC90 [12]: 4 µg/mL (≈ 7.82 µM)
Ratio [13]: 50 - 100
MIC90 [14]: 2 µg/mL (≈ 3.91 µM)
MIC90 [15]: 2 µg/mL (≈ 3.91 µM)
MIC90 [16]: 2 µg/mL (≈ 3.91 µM)
MIC90 [17]: 2 µg/mL (≈ 3.91 µM)
Ratio [18]: >100
MIC90 [19]: 2 µg/mL (≈ 3.91 µM)
MIC90 [20]: 2 µg/mL (≈ 3.91 µM)
MIC90 [21]: 2 µg/mL (≈ 3.91 µM)
MIC90 [22]: 4 µg/mL (≈ 7.82 µM)
MIC90 [23]: 2 µg/mL (≈ 3.91 µM)
MIC90 [24]: 2 µg/mL (≈ 3.91 µM)
MIC90 [25]: 128 µg/mL (≈ 250 µM)
MIC90 [26]: 2 µg/mL (≈ 3.91 µM)
MIC90 [27]: 2 µg/mL (≈ 3.91 µM)
MIC90 [28]: 2 µg/mL (≈ 3.91 µM)
Ratio [29]: 50 - 100
MIC90 [30]: 2 µg/mL (≈ 3.91 µM)
MIC90 [31]: 2 µg/mL (≈ 3.91 µM)
Ratio [32]: 50 - 100
MIC90 [33]: 2 µg/mL (≈ 3.91 µM)
Ratio [34]: 1
MIC90 [35]: 2 µg/mL (≈ 3.91 µM)
MIC90 [36]: 2 µg/mL (≈ 3.91 µM)
MIC90 [37]: 2 µg/mL (≈ 3.91 µM)
MIC90 [38]: 2 µg/mL (≈ 3.91 µM)
MIC90 [39]: 4 µg/mL (≈ 7.82 µM)
MBC [40]: 4 µg/mL (≈ 7.82 µM)
MIC90 [41]: 2 µg/mL (≈ 3.91 µM)
MIC90 [42]: 4 µg/mL (≈ 7.82 µM)
MIC90 [43]: 2 µg/mL (≈ 3.91 µM)
MIC90 [44]: 2 µg/mL (≈ 3.91 µM)
MIC90 [45]: 2 µg/mL (≈ 3.91 µM)
Ratio [46]: 50 - 100
MBC [47]: 4 µg/mL (≈ 7.82 µM)

FC(F)(F)c1ccc(CN2CCCN(CCc3cc(-c4cccs4)nc(-c4ccncc4)n3)CC2)cc1
MIC90 [1]: 4 µg/mL (≈ 7.64 µM)
MIC90 [2]: 4 µg/mL (≈ 7.64 µM)
MBC [3]: 4 µg/mL (≈ 7.64 µM)
MIC90 [4]: 4 µg/mL (≈ 7.64 µM)
Ratio [5]: 2
MIC90 [6]: 8 µg/mL (≈ 15.3 µM)
Ratio [7]: >100
MIC90 [8]: 4 µg/mL (≈ 7.64 µM)
MIC90 [9]: 4 µg/mL (≈ 7.64 µM)
Ratio [10]: >100
MIC90 [11]: 4 µg/mL (≈ 7.64 µM)
MIC90 [12]: 8 µg/mL (≈ 15.3 µM)
Ratio [13]: 50 - 100
MIC90 [14]: 4 µg/mL (≈ 7.64 µM)
MIC90 [15]: 4 µg/mL (≈ 7.64 µM)
MIC90 [16]: 4 µg/mL (≈ 7.64 µM)
MIC90 [17]: 4 µg/mL (≈ 7.64 µM)
Ratio [18]: >100
MIC90 [19]: 8 µg/mL (≈ 15.3 µM)
MIC90 [20]: 4 µg/mL (≈ 7.64 µM)
MIC90 [21]: 4 µg/mL (≈ 7.64 µM)
MIC90 [22]: 8 µg/mL (≈ 15.3 µM)
MIC90 [23]: 4 µg/mL (≈ 7.64 µM)
MIC90 [24]: 4 µg/mL (≈ 7.64 µM)
MIC90 [25]: 128 µg/mL (≈ 244 µM)
MIC90 [26]: 4 µg/mL (≈ 7.64 µM)
MIC90 [27]: 4 µg/mL (≈ 7.64 µM)
MIC90 [28]: 4 µg/mL (≈ 7.64 µM)
Ratio [29]: 50 - 100
MIC90 [30]: 4 µg/mL (≈ 7.64 µM)
MIC90 [31]: 8 µg/mL (≈ 15.3 µM)
Ratio [32]: 50 - 100
MIC90 [33]: 4 µg/mL (≈ 7.64 µM)
Ratio [34]: 1
MIC90 [35]: 4 µg/mL (≈ 7.64 µM)
MIC90 [36]: 4 µg/mL (≈ 7.64 µM)
MIC90 [37]: 4 µg/mL (≈ 7.64 µM)
MIC90 [38]: 4 µg/mL (≈ 7.64 µM)
MIC90 [39]: 4 µg/mL (≈ 7.64 µM)
MBC [40]: 8 µg/mL (≈ 15.3 µM)
MIC90 [41]: 8 µg/mL (≈ 15.3 µM)
MIC90 [42]: 4 µg/mL (≈ 7.64 µM)
MIC90 [43]: 4 µg/mL (≈ 7.64 µM)
MIC90 [44]: 4 µg/mL (≈ 7.64 µM)
MIC90 [45]: 8 µg/mL (≈ 15.3 µM)
Ratio [46]: 50 - 100
MBC [47]: 8 µg/mL (≈ 15.3 µM)
